# Columns and labels:
# [1] = tested on: Human umbilical vein endothelial cells (HUVECs); test: Inhibitory activity against the growth of vascular endothelial cells stimulated with hepatocyte growth factor; format: cell-based; conditions: HUVEC, HGF stimulation, third day, Cell Counting Kit-8, read-out: IC50 (concentration necessary to inhibit cell proliferation activity by 50%)
# Experimental: (§1) Human umbilical vein endothelial cells (HUVECs) were isolated according to the reported method (Shin Seikagaku Jikken Koza, “Cell culturing techniques”, p 197-202), and then cultured in a 5% CO2 incubator (37° C.) using EGM-2 medium (purchased from Clonetics) until the cells reached confluency.
# HUVECs were suspended in a serum-free medium for endothelial cell culture (SFM, purchased from GIBCO RBL) containing 2% FBS. The cell suspension (2×10^4 cells/ml) was put in a cell culturing 96-well plate (purchased from NUNC, Production No. 167008) at 0.1 ml/well, and then cultured in a 5% CO2 incubator (37° C.) overnight. […] After the incubation, using a Plate Reader MTP-500 (Corona Electric), the absorbance of each well was determined at a measurement wavelength of 450 nm and a reference wavelength of 660 nm. While defining the absorbance of a well supplied with HGF and no test substance as 100% cell proliferation activity and the absorbance of the well supplied with no test substance and no HGF as 0% cell proliferation activity, the cell proliferation activity ratio (%) was calculated for each cell. […]
# [2] = tested on: Human gastric cancer cells (MKN-45) tumor; test: Inhibitory activity against the tumor growth of human gastric cancer cells (MKN-45) transplanted in mice; format: in vivo, BALB/c (nu/nu) mice; conditions: oral, twice every day, fifth day, tumor volume relative to control group
# Experimental: Human gastric cancer cells (MNK-45) were suspended in HBSS (purchased from GIBCO BRL). The cell suspension (5×10^7 cells/ml) was transplanted under the right flank skin of seven-week-old female BALB/c (nu/nu) mice at a volume of 0.1 ml. When tumor volume of the site transplanted with MNK-45 cells grew to 100-200 mm^3, mice were grouped so that the groups might be equalized in average tumor volume. The test substance was suspended in 0.5% methylcellulose, a mixed solution of hydrochloric acid and glucose (0.1N hydrochloric acid:5% glucose=1:9) or a mixed solution of dimethyl sulfoxide-Tween-glucose (dimethyl sulfoxide:Tween 80:5% glucose (containing equimolar hydrochloric acid to the test substance)=7:13:80), were administered orally to the mice twice every day. The tumor volumes were determined at the fifth day after the initiation of the administration of the test substances. The major axis and the minor axis of tumor were measured by a caliper to calculate 1/2×(major axis×minor axis×minor axis) for the tumor volume. The experiment was conducted using 10 mice in the control group (solvent-administered group) and 5 mice in test substance-administered group. The ratio in tumor volume of the group for administrating the test substance relative to that of the control group was defined as a tumor proliferation rate (%).
# [3] = tested on: Human umbilical vein endothelial cells (HUVECs); test: Inhibitory activity against sandwich tube formation by vascular endothelial cells stimulated with hepatocyte growth factor; format: cell-based; conditions: HUVEC in collagen gel, 30 ng/ml HGF, fourth day, total tube length, read-out: IC50 (concentration necessary to inhibit the tube formation by 50%)
# Experimental: as §1
# To each well of a 24-well plate was added 0.4 ml of an ice-cold mixture of collagen:5×RPMI1640:reconstitution buffer (all purchased from Nitta Gelatin, Inc.) at 7:2:1, followed by incubating in a 5% CO2 incubator (37° C.) for 40 min to allow the solution to gel. Then, each well was supplied with 1 ml of the cell suspension of HUVEC (1-1.2×10^5 cells were used, though the cell number varied slightly depending on the lot of the HUVEC to be used) diluted with a serum free medium for endothelial cell culture (SFM, purchased from GIBCO RBL) supplemented with 10 ng/ml of EGF, followed by culturing in a 5% CO2 incubator (37° C.) overnight. […] The tube formed in the collagen gel of each well was stained with MTT, and then the tube image was loaded in a computer (Macintosh) to determine the total length of the tube by an image analysis software “Angiogenesis quantification software” (purchased from Kurabo). The ratio of the total length of a tube formed in a well supplied with the test substance relative to a tube formed in a well supplied with no test substance was expressed as a percentage. […]
SMILES,IC50 [1] [nM],Tumor proliferation rate (%) ([2]; Dose 10 mg/kg/time),Tumor proliferation rate (%) ([2]; Dose 30 mg/kg/time),Tumor proliferation rate (%) ([2]; Dose 100 mg/kg/time),IC50 [3] [nM]
"O=C(Cc1ccc(F)cc1)NC(=S)Nc1ccc(Oc2ccnc(NC(=O)N3CCCC3)c2)c(F)c1 [Example 13, 4-(2-Fluoro-4-{3-[2-(4-fluorophenyl)acetyl]thioureido}phenoxy)-2-[(pyrrolidin-1-yl)carbonylamino]pyridine]",73,68,47,26,130
"O=C(Cc1ccc(F)cc1)NC(=S)Nc1ccc(Oc2cc(NC(=O)N3CCCC3)ncn2)c(F)c1 [Example 3, Pyrrolidine-1-carboxylic acid [6-(2-fluoro-4-{3-[2-(4-fluorophenyl)acetyl]thioureido}phenoxy)pyrimidin-4-yl]amide]",190,,69,37,

# From patent US20070270421A1, “Novel pyridine Derivative and Pyrimidine Derivative (1)” (priority 2004, published 2007)
